Target: HEK293 cells with stable expression of the GRIN1 gene and tetracycline-inducible expression of the GRIN2B gene (NMDA receptor, NR2B) (Homo sapiens, UniProt Q13224)
Experiment: Fluo-8 Ca2+ flux assay: reversal of Ro 25-6981-mediated suppression of the Ca2+ response to co-agonist (glutamate/glycine); further: test concentration or dose not given here
Assay type: cell-based
Details: reversal of the Ro 25-6981 suppression of the Ca2+ response to co-agonist (glutamate/glycine)

Chain of HEK293 cells with stable expression of the GRIN1 gene and tetracycline-inducible expression of the GRIN2B gene (NMDA receptor, NR2B) (Q13224 27-1484, other chains not shown): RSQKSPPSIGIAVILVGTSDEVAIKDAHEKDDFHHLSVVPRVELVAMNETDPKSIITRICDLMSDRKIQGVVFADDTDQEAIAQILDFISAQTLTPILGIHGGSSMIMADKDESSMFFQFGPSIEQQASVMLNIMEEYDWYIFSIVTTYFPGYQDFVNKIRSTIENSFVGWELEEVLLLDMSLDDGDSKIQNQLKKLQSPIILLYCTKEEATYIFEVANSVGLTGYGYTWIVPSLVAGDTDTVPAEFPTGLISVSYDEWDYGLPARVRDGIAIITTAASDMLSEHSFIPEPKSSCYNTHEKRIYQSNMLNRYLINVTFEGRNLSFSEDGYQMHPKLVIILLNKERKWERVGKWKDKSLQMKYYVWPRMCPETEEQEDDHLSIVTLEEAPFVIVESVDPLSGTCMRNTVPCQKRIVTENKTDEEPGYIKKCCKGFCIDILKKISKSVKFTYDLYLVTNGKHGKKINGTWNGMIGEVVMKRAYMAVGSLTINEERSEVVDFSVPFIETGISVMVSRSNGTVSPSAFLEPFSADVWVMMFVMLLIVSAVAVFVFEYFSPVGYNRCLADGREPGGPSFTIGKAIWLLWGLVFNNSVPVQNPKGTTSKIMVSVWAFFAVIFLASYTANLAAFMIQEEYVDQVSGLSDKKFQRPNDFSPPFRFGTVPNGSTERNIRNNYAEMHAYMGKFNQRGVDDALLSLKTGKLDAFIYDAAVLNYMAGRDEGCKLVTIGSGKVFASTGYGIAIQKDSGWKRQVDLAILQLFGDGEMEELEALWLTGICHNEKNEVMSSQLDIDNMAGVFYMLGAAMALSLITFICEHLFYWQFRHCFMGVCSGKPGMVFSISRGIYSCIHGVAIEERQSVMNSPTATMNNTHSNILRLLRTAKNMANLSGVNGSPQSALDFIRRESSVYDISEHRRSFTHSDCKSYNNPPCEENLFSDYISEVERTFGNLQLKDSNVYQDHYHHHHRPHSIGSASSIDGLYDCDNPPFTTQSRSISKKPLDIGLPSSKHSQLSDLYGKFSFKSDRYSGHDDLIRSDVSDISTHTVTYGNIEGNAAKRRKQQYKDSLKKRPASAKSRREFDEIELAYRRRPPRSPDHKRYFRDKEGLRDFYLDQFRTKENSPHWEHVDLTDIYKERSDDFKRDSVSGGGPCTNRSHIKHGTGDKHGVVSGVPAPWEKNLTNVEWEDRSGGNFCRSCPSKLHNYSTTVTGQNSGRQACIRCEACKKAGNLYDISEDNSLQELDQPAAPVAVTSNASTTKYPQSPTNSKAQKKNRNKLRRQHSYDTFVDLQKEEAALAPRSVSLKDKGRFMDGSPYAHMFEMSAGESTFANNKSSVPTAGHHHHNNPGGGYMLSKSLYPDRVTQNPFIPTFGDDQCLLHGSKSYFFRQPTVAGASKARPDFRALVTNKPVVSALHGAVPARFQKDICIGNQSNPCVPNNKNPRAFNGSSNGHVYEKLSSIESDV

Structure (SMILES) | Response Recovered (%)
O=C(Cn1ccn2ncc(-c3ccc(Cl)c(Cl)c3)c2c1=O)N1CCCC1 [Example 326, 3-(3,4-dichlorophenyl)-5-(2-oxo-2-(pyrrolidin-1-yl)ethyl)pyrazolo[1,5-a]pyrazin-4(5H)-one] | 29
O=C(Cn1cnc2ccn(-c3ccc(Cl)cc3)c2c1=O)NC1CC1 [Example 375, 2-(5-(4-chlorophenyl)-4-oxo-4,5-dihydro-3H-pyrrolo[3,2-d]pyrimidin-3-yl)-N-cyclopropylacetamide] | 0
O=C(Cn1ccc2c(c(-c3ccc(F)c(Cl)c3)cn2-c2ccncn2)c1=O)N1CCC(F)C1 (stereo not shown) [Example 248] | 59
Cc1nnc(-n2cc(-c3ccc(F)c(C(F)(F)F)c3)c3c(=O)n(CC(=O)N4CCC(F)C4)ccc32)o1 (stereo not shown) [Example 263, 3-(4-fluoro-3-(trifluoromethyl)phenyl)-5-(2-(3-fluoropyrrolidin-1-yl)-2-oxoethyl)-1-(5-methyl-1,3,4-oxadiazol-2-yl)-1H-pyrrolo[3,2-c]pyridin-4(5H)-one] | 72
O=C(Cn1cnc2snc(-c3ccc(Cl)cc3)c2c1=O)N1CCCC1 [Example 380, 3-(4-chlorophenyl)-5-(2-oxo-2-(pyrrolidin-1-yl)ethyl)isothiazolo[5,4-d]pyrimidin-4(5H)-one] | 6
CC1CN(C(=O)Cn2ccc3scc(-c4ccc(F)c(Cl)c4)c3c2=O)C1 [Example 48, 3-(3-chloro-4-fluorophenyl)-5-(2-(3-methylazetidin-1-yl)-2-oxoethyl)thieno[3,2-c]pyridin-4(5H)-one] | 67
CCn1cc(-c2ccc(Cl)c(C(F)(F)F)c2)c2c(=O)n(CC(=O)N3CC(F)(F)C3)cnc21 [Example 169] | 57
O=C(Cn1cnc2csc(-c3ccc(C(F)(F)F)cc3)c2c1=O)N1CCCC1 [Example 356, 3-(2-oxo-2-(pyrrolidin-1-yl)ethyl)-5-(4-(trifluoromethyl)phenyl)thieno[3,4-d]pyrimidin-4(3H)-one] | 11
O=C(Cn1cnc2csc(-c3ccc(Cl)c(C(F)(F)F)c3)c2c1=O)N1CC(F)(F)C1 [Example 362, 5-(4-chloro-3-(trifluoromethyl)phenyl)-3-(2-(3,3-difluoroazetidin-1-yl)-2-oxoethyl)thieno[3,4-d]pyrimidin-4(3H)-one] | 39
O=C(Cn1ccn2ccc(-c3ccc(F)c(C(F)(F)F)c3)c2c1=O)N1CC(F)(CF)C1 [Example 407, 2-(2-(3-fluoro-3-(fluoromethyl)azetidin-1-yl)-2-oxoethyl)-8-(4-fluoro-3-(trifluoromethyl)phenyl)pyrrolo[1,2-a]pyrazin-1(2H)-one] | 130
O=C(Cn1cc(N2CCCC2)c2scc(-c3ccc(F)c(C(F)(F)F)c3)c2c1=O)N1CCCC1 [Example 114, 3-(4-fluoro-3-(trifluoromethyl)phenyl)-5-(2-oxo-2-(pyrrolidin-1-yl)ethyl)-7-(pyrrolidin-1-yl)thieno[3,2-c]pyridin-4(5H)-one] | 15
CCN(CC)Cc1cn(CC(=O)N2CCC(F)C2)c(=O)c2c(-c3ccc(F)c(C(F)(F)F)c3)csc12 (stereo not shown) [Example 117, 7-((diethylamino)methyl)-3-(4-fluoro-3-(trifluoromethyl)phenyl)-5-(2-(3-fluoropyrrolidin-1-yl)-2-oxoethyl)thieno[3,2-c]pyridin-4(5H)-one 2,2,2-trifluoroacetate] | 30
O=C(Cn1ccn2ccc(-c3cnc(Cl)c(Cl)c3)c2c1=O)N1CC(F)(CF)C1 [Example 406, 8-(5,6-dichloropyridin-3-yl)-2-(2-(3-fluoro-3-(fluoromethyl)azetidin-1-yl)-2-oxoethyl)pyrrolo[1,2-a]pyrazin-1(2H)-one] | 85
CC1(F)CN(C(=O)Cn2ccn3c(C4CC4)nc(-c4ccc(F)c(C(F)(F)F)c4)c3c2=O)C1 [Example 438, 3-cyclopropyl-1-(4-fluoro-3-(trifluoromethyl)phenyl)-7-(2-(3-fluoro-3-methylazetidin-1-yl)-2-oxoethyl)imidazo[1,5-a]pyrazin-8(7H)-one] | 79
CC1(F)CN(C(=O)Cn2ccc3scc(-c4ccc(Cl)c(F)c4)c3c2=O)C1 [Example 18, 3-(4-chloro-3-fluorophenyl)-5-(2-(3-fluoro-3-methylazetidin-1-yl)-2-oxoethyl)thieno[3,2-c]pyridin-4(5H)-one] | 120
O=C(Cn1ccc2scc(-c3ccc(F)c(C(F)(F)F)c3)c2c1=O)N1CC(F)C1 [Example 32, 3-(4-fluoro-3-(trifluoromethyl)phen-yl)-5-(2-(3-fluoroazetidin-1-yl)-2-oxoethyl)thieno[3,2-c]pyridin-4(5H)-one] | 60
O=C(Cn1cnc2csc(-c3ccc(Cl)cc3)c2c1=O)NC1CCC1 [Example 347, 2-(5-(4-chlorophenyl)-4-oxothieno[3,4-d]pyrimidin-3-(4H)-yl)-N-cyclobutylacetamide] | 2

Structure (SMILES) | Response Recovered (%)
O=C(Cn1ccc2scc(-c3cnc(Cl)c(Cl)c3)c2c1=O)N1CC(F)C(F)C1 (stereo not shown) [Example 35, 3-(5,6-dichloropyridin-3-yl)-5-(2-(3,4-difluoropyrrolidin-1-yl)-2-oxoethyl)thieno[3,2-c]pyridin-4(5H)-one] | 28
O=C(Cn1ccc2[nH]cc(-c3ccc(Cl)c(F)c3)c2c1=O)N1CC(F)(F)C1 [Example 213, 3-(4-chloro-3-fluorophenyl)-5-(2-(3,3-difluoroazetidin-1-yl)-2-oxoethyl)-1H-pyrrolo[3,2-c]pyridin-4(5H)-one] | 109
O=C(Cn1ccc2scc(-c3ccc(Cl)c(Cl)c3)c2c1=O)N1CC(F)(CF)C1 [Example 82, 3-(3,4-dichlorophenyl)-5-(2-(3-fluoro-3-(fluoromethyl)azetidin-1-yl)-2-oxoethyl)thieno[3,2-c]pyridin-4(5H)-one] | 140
O=C(Cn1cnc2[nH]cc(-c3ccc(Cl)c(F)c3)c2c1=O)N1CC(F)(F)C1 [Example 167, 5-(4-chloro-3-fluorophenyl)-3-(2-(3,3-difluoroazetidin-1-yl)-2-oxoethyl)-3H-pyrrolo[2,3-d]pyrimidin-4(7H)-one] | 35
O=C(Cn1ccc2[nH]cc(-c3ccc(F)c(C(F)(F)F)c3)c2c1=O)N1CC(F)(F)C1 [Example 216, 5-(2-(3,3-difluoroazetidin-1-yl)-2-oxoethyl)-3-(4-fluoro-3-(trifluoromethyl)phenyl)-1H-pyrrolo[3,2-c]pyridin-4(5H)-one] | 101
COCCn1cc(-c2ccc(Cl)c(C(F)(F)F)c2)c2c(=O)n(CC(=O)N3CCCC3)cnc21 [Example 185, 5-(4-chloro-3-(trifluoromethyl)phenyl)-7-(2-methoxyethyl)-3-(2-oxo-2-(pyrrolidin-1-yl)ethyl)-3H-pyrrolo[2,3-d]pyrimidin-4(7H)-one] | 76
COCn1cc(-c2ccc(Cl)c(Cl)c2)c2c(=O)n(CC(=O)N3CCC(F)C3)ccc21 (stereo not shown) [Example 249, 3-(3,4-dichlorophenyl)-5-(2-(3-fluoropyrrolidin-1-yl)-2-oxoethyl)-1-(methoxymethyl)-1H-pyrrolo[3,2-c]pyridin-4(5H)-one] | 70
O=C(Cn1cnc2c(c(-c3ccc(Cl)c(F)c3)cn2CCO)c1=O)N1CCCC1 [Example 197] | 7
CC1(NC(=O)OC(C)(C)C)CN(C(=O)Cn2ccc3scc(-c4ccc(F)c(C(F)(F)F)c4)c3c2=O)C1 [Example 77, tert-butyl (1-(2-(3-(4-fluoro-3-(trifluoromethyl)phen-yl)-4-oxothieno[3,2-c]pyridin-5(4H)-yl)acetyl)-3-methylazetidin-3-yl)carbamate] | −6.4
C[Si](C)(C)CCOCn1cc(-c2ccc(F)c(Cl)c2)c2c(=O)n(CC(=O)N3CCC(F)C3)ccc21 (stereo not shown) [Example 206, 3-(3-chloro-4-fluorophenyl)-5-(2-(3-fluoropyrrolidin-1-yl)-2-oxoethyl)-1-((2-(trimethylsilyl)ethoxy)methyl)-1H-pyrrolo[3,2-c]pyridin-4(5H)-one] | 107
O=C(Cn1ccc2scc(-c3cnc(F)c(Cl)c3)c2c1=O)N1CC(F)C(F)C1 (stereo not shown) [Example 38, 3-(5-chloro-6-fluoropyrridin-3-yl)-5-(2-(3,4-difluoropyrrolidin-1-yl)-2-oxoethyl)thieno[3,2-c]pyridin-4(5H)-one] | 18
Cc1cc(-c2csc3ccn(CC(=O)N4CC(C)(F)C4)c(=O)c23)cnc1F [Example 87, 5-(2-(3-fluoro-3-methylazetidin-1-yl)-2-oxoethyl)-3-(6-fluoro-5-methylpyridin-3-yl)thieno[3,2-c]pyridin-4(5H)-one] | −4.2
O=C(Cn1ccc2[nH]cc(-c3ccc(Cl)c(F)c3)c2c1=O)N1CCCC1 [Example 211, 3-(4-chloro-3-fluorophenyl)-5-(2-oxo-2-(pyrrolidin-1-yl)ethyl)-1H-pyrrolo[3,2-c]pyridin-4(5H)-one] | 55
O=C(Cn1ccc2c(c(-c3ccc(Cl)c(Cl)c3)cn2C2CC2)c1=O)N1CCC(F)C1 (stereo not shown) [Example 233, 1-cyclopropyl-3-(3,4-dichlorophenyl)-5-(2-(3-fluoropyrrolidin-1-yl)-2-oxoethyl)-1H-pyrrolo[3,2-c]pyridin-4(5H)-one] | 85
O=C(Cn1ncc2scc(-c3ccc(Cl)c(Cl)c3)c2c1=O)N1CCCC1 [Example 338, 3-(3,4-dichlorophenyl)-5-(2-oxo-2-(pyrrolidin-1-yl)ethyl)thieno[2,3-d]pyridazin-4(5H)-one] | 15
O=C(Cn1ncc2scc(-c3ccc(Cl)c(C(F)(F)F)c3)c2c1=O)N1CCC(F)C1 (stereo not shown) [Example 344, 3-(4-chloro-3-(trifluoromethyl)phenyl)-5-(2-(3-fluoropyrrolidin-1-yl)-2-oxoethyl)thieno[2,3-d]pyridazin-4(5H)-one] | −1
O=C(Cn1ccc2cccc(-c3ccc(F)c(Cl)c3)c2c1=O)N1CCCC1 [Example 303, 8-(3-chloro-4-fluorophenyl)-2-(2-oxo-2-(pyrrolidin-1-yl)ethyl)isoquinolin-1(2H)-one] | 46
